{"source": "patent US8895079B2", "about": "“Combinations of botanical extracts for promoting cardiovascular health” (National Research Council of Canada, priority 2005, dated 2014)", "key": {"[1]": {"system": "hamsters fed a diet containing 0.25% cholesterol", "assay": "Example 2: tissue weight to body weight ratio", "type": "in vivo, male Golden Syrian hamsters", "details": "Example 2, 5 weeks; BBRCI 100 mg/kg·d and/or PS 1% (w/w); means±SD, n=12", "protocol": "In this example, a controlled, five week animal study was performed. A total of 48 male Golden Syrian hamsters were randomized into 4 groups of 12 and fed isocaloric diets as follows. Hamster husbandry, living and feeding conditions were similar to that used for Example 1. • Control a semi-synthetic casein-corn starch-sucrose diet that contained 0.25% (w/w) cholesterol • BBRCI control diet containing 100 mg/kg·d of BBRCI • PS control diet containing 1% (w/w) PS • BBRCI+PS control diet containing 100 mg/kg·d BBRCI and 1% (w/w) PS Table 7 summarizes the effect on tissue weight to body weight ratio (values are means±SD). Data were analyzed by one-way ANOVA followed by Tukey test when a significant treatment effect was detected. A significant difference was indicated by a p<0.05. […] The combination of BBRCI and PS (BBRCI+PS), however, reduced the average liver weight in a strong, statistically significant, and synergistic manner compared to liver weights in the BBRCI and PS groups."}, "[2]": {"system": "hamsters fed an atherogenic control diet", "assay": "Example 1: liver cholesterol concentration (FIG. 4)", "type": "in vivo, Male Golden Syrian hamsters", "details": "Example 1, 4 weeks, BBRCI 100 mg/kg·d and/or PS 1% (w/w)", "description": "This observation, together with lower liver weight, implies that either BBRCI or PS or combination of either can be used to treat fatty liver."}, "[3]": {"system": "hamsters fed an atherogenic control diet", "assay": "Example 1: four week hamster study, plasma cholesterol and triglyceride levels", "type": "in vivo, Male Golden Syrian hamsters", "protocol": "A controlled, four week animal study was performed to compare and contrast the effects of three interventional strategies on blood cholesterol and triglyceride levels. Four randomized groups of 15 male Golden Syrian hamsters were fed isocaloric diets as follows: • Control a semi-synthetic casein-corn starch-sucrose diet that contained 0.15% (w/w) cholesterol and 5% (w/w) fat • BBRCI control diet containing 100 mg/kg·d of BBRCI • PS control diet containing 1% (w/w) PS • BBRCI+PS control diet containing 100 mg/kg·d BBRCI and 1% (w/w) PS BBRCI and PS were introduced into the diet by blending. The primary endpoint at the end of the study was to determine the effects of each intervention on circulating blood lipids including total cholesterol (T-C), high-density-lipoprotein cholesterol (HDL-C), nonHDL-C (which is indicative of LDL-C levels) and triglyceride (TG) profiles. All lipids were measured by the standard enzymatic method. Male Golden Syrian Hamsters were purchased from Charles River Co. housed individually in cages for two weeks prior to the commencement of the study. During this adjustment period, animals were fed with regular rodent chow diet with free access to both food and water. A total of 60 hamsters were weighed and randomly assigned to one of four groups of 15 animals each. Animals are subjected to a temperature-controlled environment with a 12:12 h light/dark cycle. Each group was fed with one of the four isocaloric experimental diets for a 4 week period. […] During the course of the experiment, animals were weighed weekly and food consumption was determined on a daily basis over the course of the experiment. At the conclusion of the study all animals were anaesthetized with isoflurane and killed by decapitation. Blood samples were collected into tubes containing ethylenediaminetetraacetic acid (EDTA). Red blood cells and plasma were separated and stored at −80° C. until further analysis. Plasma was analyzed for total cholesterol, HDL-C and TG concentrations, for which results are reported below. NonHDL-C was calculated by subtracting HDL-C from total cholesterol. FIGS. 1-3 and Table 2 represent the effects of BBRCI and PS alone or in combination on blood cholesterol and triglyceride levels. Values are means±SD, n=15. Data were analyzed by one-way ANOVA followed by Tukey test if significance was detected. A significant difference was indicated by a p<0.05."}, "[4]": {"assay": "Example 1: weekly body weight and daily feed intake", "type": "in vivo, Male Golden Syrian hamsters", "details": "Example 1, weekly body weight over 4 weeks, FIG. 5", "protocol": "Male Golden Syrian Hamsters were purchased from Charles River Co. housed individually in cages for two weeks prior to the commencement of the study. During this adjustment period, animals were fed with regular rodent chow diet with free access to both food and water. A total of 60 hamsters were weighed and randomly assigned to one of four groups of 15 animals each. Animals are subjected to a temperature-controlled environment with a 12:12 h light/dark cycle. Each group was fed with one of the four isocaloric experimental diets for a 4 week period. […] During the course of the experiment, animals were weighed weekly and food consumption was determined on a daily basis over the course of the experiment. During the course of the experiment, data were obtained with regard to food consumption and bodyweight so that the dose of BBRCI was maintained on a mg/kg basis as the animals grew over the 4 weeks experimental period. […] This may have important implications on weight control, healthy weight management strategies, and body composition (increase lean body mass) in humans and animals. […] Thereafter, significant differences in food intake was observed from days 22-25 but this effect disappeared during days 25-28 as a small surgical intervention was performed on each animal on day 25 on the neck area of the animal, which reduced food consumption in each treatment. […]"}, "[5]": {"system": "liver HMG-CoA reductase mRNA", "assay": "Example 1: liver HMG-CoA reductase mRNA expression, real-time PCR", "type": "in vivo, Male Golden Syrian hamsters", "details": "relative expression in reference to a housekeeping gene, Example 1, 4 weeks", "protocol": "Experiments were also conducted to determine the effect on the expression of genes associated with cholesterol in the liver and intestine. Total RNA was extracted and mRNA was converted to cDNA. The mRNA expression was measured by real-time PCR with four repeats and calculated as relative expression in reference to internal control of a housekeeping gene for each sample. Table 5 and FIG. 8a summarize the effect of BBRCI and PS alone or in combination on liver HMG-CoA reductase. […] HMG-CoA reductase is a rate-limiting enzyme in cholesterol biosynthesis. […] When a strong action occurs on cholesterol reduction through inhibiting cholesterol absorption, cholesterol biosynthesis is increased as compensatory response to the cholesterol loss due to the reduced absorption. The powerful synergistic action of BBRCI and PS on HMG-CoA reductase mRNA expression implies that the combination of these materials may act synergistically to reduce blood cholesterol, possibly by inhibiting cholesterol absorption."}, "[6]": {"details": "Example 1, 4 weeks, BBRCI 100 mg/kg·d and/or PS 1% (w/w)"}, "[7]": {"details": "Example 1, BBRCI 100 mg/kg·d, PS 1% (w/w)"}, "[8]": {"details": "plasma, 0.15% cholesterol diet, 4 weeks, BBRCI 100 mg/kg·d and/or PS 1% (w/w), means±SD, n=15"}}, "note": "Marks after values point to notes of the source that are not given here.", "data": [{"smiles": "COc1ccc2cc3[n+](cc2c1OC)CCc1cc2c(cc1-3)OCO2", "note": "[BBRCI, Berberine chloride]", "values": [{"measurement": "Heart, tissue weight to body weight ratio", "setting": "[1]", "result": "0.37 ± 0.03"}, {"measurement": "Liver, tissue weight to body weight ratio", "setting": "[1]", "result": "4.67 ± 0.38^ab"}, {"measurement": "Right kidney, tissue weight to body weight ratio", "setting": "[1]", "result": "0.35 ± 0.03"}, {"measurement": "cholesterol concentration in the liver", "setting": "[2]", "result": "dramatically reduced cholesterol concentration in the liver"}, {"measurement": "HDL-C % difference from Control", "setting": "[3]; [6]", "result": "−16.2", "unit": "%"}, {"measurement": "HDL-C/nonHDL-C % difference from Control", "setting": "[3]; [6]", "result": 19, "unit": "%"}, {"measurement": "T-C % difference from Control", "setting": "[3]; [6]", "result": "−21.9", "unit": "%"}, {"measurement": "TG % difference from Control", "setting": "[3]; [6]", "result": "−3.9", "unit": "%"}, {"measurement": "nonHDL-C % difference from Control", "setting": "[3]; [6]", "result": "−28.2", "unit": "%"}, {"measurement": "reduction of T-C relative to control", "setting": "[3]; [7]", "result": 22, "unit": "%"}, {"measurement": "reduction of nonHDL-C relative to control", "setting": "[3]; [7]", "result": 28, "unit": "%"}, {"measurement": "reduction of plasma TG levels", "setting": "[3]; Example 1, relative to control, BBRCI 100 mg/kg·d, PS 1% (w/w)", "result": 4, "unit": "%"}, {"measurement": "T-C Concentration", "setting": "[3]; plasma, 0.15% cholesterol diet, 4 weeks, BBRCI 100 mg/kg·d and/or PS 1% (w/w) in diet, means±SD, n=15", "result": "169 ± 20^b mg/dl"}, {"measurement": "HDL-C Concentration", "setting": "[3]; [8]", "result": "100 ± 17^b mg/dl"}, {"measurement": "TG Concentration", "setting": "[3]; [8]", "result": "326 ± 111^a mg/dl"}, {"measurement": "nonHDL-C Concentration", "setting": "[3]; plasma, calculated by subtracting HDL-C from total cholesterol, 0.15% cholesterol diet, 4 weeks, BBRCI 100 mg/kg·d and/or PS 1% (w/w), n=15", "result": "66 ± 14^b mg/dl"}, {"measurement": "HDL-C/nonHDL-C", "setting": "[3]; ratio, plasma, 0.15% cholesterol diet, 4 weeks, BBRCI 100 mg/kg·d and/or PS 1% (w/w), n=15", "result": "1.60 ± 0.58^b"}, {"measurement": "body weight", "setting": "[4]", "result": "trend toward reduced body weights after two weeks"}, {"measurement": "HMG-CoA reductase mRNA expression", "setting": "[5]", "result": "0.98 ± 0.10^b"}]}]}
